# Results taken from PubChem BioAssay AID651642 (Sanford-Burnham Center for Chemical Genomics, 2012).
# Assays:
# H9c2 = assay: protection of cardiomyocytes from stress damage, SAR follow-up, cell-based, panel, H9c2 and HL-1, H2O2, 2-deoxyglucose, ATP luminescence (AID 651642)
# HL-1 = assay: as above
# [1] = H9c2/HL-1 cardiomyocyte 2-deoxyglucose damage, mean of runs, with 2-deoxyglucose, mean IC50 across panel
# [2] = H9c2/HL-1 cardiomyocyte 2-deoxyglucose damage, run 1, with 2-deoxyglucose
# [3] = H9c2/HL-1 cardiomyocyte 2-deoxyglucose damage, run 2, with 2-deoxyglucose
# [4] = H9c2/HL-1 cardiomyocyte 2-deoxyglucose damage, run 3, with 2-deoxyglucose
# [5] = H9c2/HL-1 cardiomyocyte 2-deoxyglucose damage, run 4, with 2-deoxyglucose
# [6] = H9c2/HL-1 cardiomyocyte H2O2 oxidative damage, run 1, with H2O2
# [7] = H9c2/HL-1 cardiomyocyte H2O2 oxidative damage, run 2, with H2O2
# [8] = H9c2/HL-1 cardiomyocyte H2O2 oxidative damage, run 3, with H2O2
# [9] = H9c2/HL-1 cardiomyocyte H2O2 oxidative damage, run 4, with H2O2
# [10] = H9c2/HL-1 cardiomyocyte H2O2 oxidative damage, mean of runs, with H2O2, mean IC50 across panel
Compound,IC50 (H9c2; [1]),IC50 (H9c2; [2]),IC50 (H9c2; [3]),IC50 (H9c2; [4]),IC50 (H9c2; [5]),IC50 (H9c2; [6]),IC50 (H9c2; [7]),IC50 (H9c2; [8]),IC50 (H9c2; [9]),IC50 (HL-1; [1]),IC50 (HL-1; [2]),IC50 (HL-1; [3]),IC50 (HL-1; [4]),IC50 (HL-1; [5]),IC50 (HL-1; [10]),IC50 (HL-1; [6]),IC50 (HL-1; [7]),IC50 (HL-1; [8]),IC50 (HL-1; [9]),IC50 (H9c2; [10])
COc1ccc2nc(-c3cc(OC)c(OC)c(OC)c3)cc(C(=O)NCC(=O)Nc3cccc(C(C)=O)c3)c2c1,2.63 µM,3.05 µM,3.53 µM,1.89 µM,2.03 µM,0.761 µM,0.868 µM,> 79 µM,0.324 µM,2.9 µM,1.27 µM,3.22 µM,3.47 µM,3.64 µM,5.12 µM,4.48 µM,6.94 µM,4.08 µM,5 µM,
COc1ccc2c(c1OC)C(=O)N1c3ccccc3C(=O)N(Cc3ccc(C)cc3)C21 (stereo not drawn),> 79 µM,> 79 µM,> 79 µM,> 79 µM,> 79 µM,> 79 µM,6.9 µM,> 79 µM,> 79 µM,,11.4 µM,23.3 µM,> 79 µM,> 79 µM,,> 79 µM,> 79 µM,> 79 µM,> 79 µM,
COc1cc(-c2cc(C(=O)Nc3cccc(C(C)=O)c3)c3ccc(Cl)cc3n2)cc(OC)c1OC,> 79 µM,> 79 µM,> 79 µM,> 79 µM,> 79 µM,3.39 µM,3.79 µM,> 79 µM,> 79 µM,> 79 µM,> 79 µM,> 79 µM,> 79 µM,> 79 µM,2.26 µM,3.07 µM,3.46 µM,0.875 µM,1.65 µM,
COc1ccc2nc(-c3cc(OC)c(OC)c(OC)c3)cc(C(=O)NCC(=O)Nc3ccc(C(C)=O)cc3)c2c1,5.3 µM,6.66 µM,7.3 µM,3.59 µM,3.65 µM,1.96 µM,1.99 µM,0.928 µM,1.23 µM,4.33 µM,2.44 µM,3 µM,4.63 µM,7.24 µM,5.81 µM,6.12 µM,7.42 µM,4.42 µM,5.28 µM,1.52 µM
CCOC(=O)c1cccc(NC(=O)CNC(=O)c2cc(-c3cc(OC)c(OC)c(OC)c3)nc3ccc(F)cc23)c1,3.79 µM,4.83 µM,5.33 µM,1.98 µM,3.04 µM,0.838 µM,0.849 µM,0.526 µM,0.541 µM,2.58 µM,1.56 µM,1.76 µM,3.27 µM,3.74 µM,2.38 µM,1.7 µM,3.23 µM,1.98 µM,2.6 µM,0.688 µM
COc1ccc2c(c1OC)C(=O)N1c3ccccc3C(=O)N(Cc3ccccn3)C21 (stereo not drawn),> 79 µM,> 79 µM,> 79 µM,> 79 µM,> 79 µM,7.56 µM,10.3 µM,> 79 µM,> 79 µM,> 79 µM,> 79 µM,> 79 µM,> 79 µM,> 79 µM,> 79 µM,> 79 µM,> 79 µM,> 79 µM,> 79 µM,
COc1cc(-c2cc(C(=O)Nc3cccc(C(C)=O)c3)c3cccc(Cl)c3n2)cc(OC)c1OC,> 79 µM,> 79 µM,> 79 µM,> 79 µM,> 79 µM,> 79 µM,> 79 µM,> 79 µM,> 79 µM,> 79 µM,> 79 µM,> 79 µM,> 79 µM,> 79 µM,,> 79 µM,> 79 µM,2 µM,2.5 µM,> 79 µM
CCOC(=O)c1cccc(NC(=O)c2cc(-c3cc(OC)c(OC)c(OC)c3)nc3ccc(C)cc23)c1,> 79 µM,> 79 µM,> 79 µM,> 79 µM,> 79 µM,2.98 µM,3.24 µM,2.59 µM,3.01 µM,,2.03 µM,2.12 µM,> 79 µM,> 79 µM,,> 79 µM,2.63 µM,1.79 µM,2.94 µM,2.96 µM
CCOC(=O)c1cccc(NC(=O)c2cc(-c3cc(OC)c(OC)c(OC)c3)nc3ccccc23)c1,> 79 µM,> 79 µM,> 79 µM,> 79 µM,> 79 µM,3.9 µM,4.44 µM,> 79 µM,> 79 µM,,3.23 µM,3.46 µM,> 79 µM,> 79 µM,4.62 µM,3.4 µM,4.59 µM,3.78 µM,6.72 µM,
CCOC(=O)c1cccc(NC(=O)CNC(=O)c2cc(-c3cc(OC)c(OC)c(OC)c3)nc3ccccc23)c1,,8.17 µM,9.67 µM,> 79 µM,> 79 µM,2.07 µM,2.14 µM,> 79 µM,> 79 µM,,2.08 µM,2.42 µM,> 79 µM,> 79 µM,,9.1 µM,17.9 µM,> 79 µM,> 79 µM,
COc1cc(-c2cc(C(=O)NCC(=O)Nc3cccc(C(C)=O)c3)c3cc(C)ccc3n2)cc(OC)c1OC,,> 79 µM,> 79 µM,19.9 µM,24.4 µM,12.5 µM,13.5 µM,5.91 µM,8.51 µM,23 µM,13.6 µM,14.8 µM,29.8 µM,33.9 µM,36.9 µM,34.9 µM,44.3 µM,25.5 µM,43.1 µM,10.1 µM
COc1cc(-c2cc(C(=O)Nc3cccc(C#N)c3)c3ccccc3n2)cc(OC)c1OC,> 79 µM,> 79 µM,> 79 µM,> 79 µM,> 79 µM,7.93 µM,8.58 µM,> 79 µM,6.2 µM,,5.37 µM,7.28 µM,> 79 µM,> 79 µM,,> 79 µM,> 79 µM,6.09 µM,11.1 µM,
COC(=O)CNC(=O)c1cc(-c2cc(OC)c(OC)c(OC)c2)nc2ccccc12,> 79 µM,> 79 µM,> 79 µM,> 79 µM,> 79 µM,> 79 µM,39.1 µM,> 79 µM,> 79 µM,> 79 µM,> 79 µM,> 79 µM,> 79 µM,> 79 µM,,> 79 µM,41.2 µM,> 79 µM,> 79 µM,
CCOC(=O)c1cccc(NC(=O)c2cc(-c3cc(OC)c(OC)c(OC)c3)nc3ccc(Cl)cc23)c1,> 79 µM,> 79 µM,> 79 µM,> 79 µM,> 79 µM,3.38 µM,21.1 µM,> 79 µM,> 79 µM,> 79 µM,> 79 µM,> 79 µM,> 79 µM,> 79 µM,,> 79 µM,> 79 µM,1.79 µM,4.09 µM,
COc1cc(-c2cc(C(=O)Nc3cccc(C(C)=O)c3)c3cc(Br)ccc3n2)cc(OC)c1OC,> 79 µM,> 79 µM,> 79 µM,> 79 µM,> 79 µM,> 79 µM,10.4 µM,> 79 µM,> 79 µM,> 79 µM,> 79 µM,> 79 µM,> 79 µM,> 79 µM,,> 79 µM,9.89 µM,2.56 µM,2.83 µM,
CCOC(=O)c1cccc(NC(=O)c2cc(-c3cc(OC)c(OC)c(OC)c3)nc3ccc(Br)cc23)c1,> 79 µM,> 79 µM,> 79 µM,> 79 µM,> 79 µM,2.86 µM,3.15 µM,> 79 µM,> 79 µM,> 79 µM,> 79 µM,> 79 µM,> 79 µM,> 79 µM,,> 79 µM,> 79 µM,> 79 µM,4.69 µM,
COc1cc(-c2cc(C(=O)Nc3cccc(C(=O)NC4CC4)c3)c3ccccc3n2)cc(OC)c1OC,19.6 µM,19.4 µM,21 µM,18.4 µM,19.8 µM,2 µM,2.73 µM,2.22 µM,3.11 µM,6.39 µM,3.71 µM,4.41 µM,7.05 µM,10.4 µM,6.68 µM,4.24 µM,4.83 µM,7.07 µM,10.6 µM,2.51 µM
